The target in experiment [1] is T1, Aurora kinase C (Homo sapiens) (UniProt Q9UQB9).
T1 sequence (whole entry): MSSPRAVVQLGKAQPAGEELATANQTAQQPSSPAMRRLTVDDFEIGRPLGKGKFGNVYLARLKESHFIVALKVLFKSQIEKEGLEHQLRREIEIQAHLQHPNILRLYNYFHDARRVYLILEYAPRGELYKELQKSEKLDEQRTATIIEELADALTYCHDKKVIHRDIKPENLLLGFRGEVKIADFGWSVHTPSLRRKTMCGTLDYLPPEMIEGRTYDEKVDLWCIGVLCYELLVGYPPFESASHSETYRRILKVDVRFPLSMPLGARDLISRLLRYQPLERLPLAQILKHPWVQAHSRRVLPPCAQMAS
The experiment can be described thus: Selectivity interaction (Kinase panel (Z-LYTE Assay)) EUB0001632a AURKC. The following applies: at 10 µM.

Experiment [2] deals with Mitogen-activated protein kinase 9 (Homo sapiens, UniProt P45984). As to the kind of experiment: Selectivity interaction (ActivX KiNativ screen (kinase selectivity in THP-1 cell lysates)) EUB0000639a MAPK9. The following applies: lysate, at 0.2 µM. The class given is subcellular.
Chain of Mitogen-activated protein kinase 9 (P45984 whole entry, looked up): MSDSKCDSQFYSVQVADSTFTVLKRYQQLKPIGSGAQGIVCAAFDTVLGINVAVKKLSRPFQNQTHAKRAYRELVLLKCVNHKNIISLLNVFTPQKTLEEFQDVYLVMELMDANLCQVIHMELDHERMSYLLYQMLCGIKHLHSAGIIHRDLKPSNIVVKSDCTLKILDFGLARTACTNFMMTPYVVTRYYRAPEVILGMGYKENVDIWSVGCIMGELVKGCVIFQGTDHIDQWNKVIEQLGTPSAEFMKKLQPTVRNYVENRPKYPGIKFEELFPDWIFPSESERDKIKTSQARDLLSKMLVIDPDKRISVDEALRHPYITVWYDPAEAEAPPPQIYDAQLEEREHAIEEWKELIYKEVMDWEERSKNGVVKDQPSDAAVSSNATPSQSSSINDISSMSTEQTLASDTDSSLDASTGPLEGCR
In experiment [3] the target is Tyrosine-protein kinase SYK (Homo sapiens, UniProt P43405). As to the kind of experiment: Selectivity interaction (ActivX KiNativ screen (kinase selectivity in THP-1 cell lysates)) EUB0000639a SYK. The format is subcellular. The following applies: lysate, at 0.04 µM.
For experiment [4], the target named is T2, Muscle, skeletal receptor tyrosine-protein kinase (Homo sapiens) (UniProt O15146).
T2 sequence (whole entry): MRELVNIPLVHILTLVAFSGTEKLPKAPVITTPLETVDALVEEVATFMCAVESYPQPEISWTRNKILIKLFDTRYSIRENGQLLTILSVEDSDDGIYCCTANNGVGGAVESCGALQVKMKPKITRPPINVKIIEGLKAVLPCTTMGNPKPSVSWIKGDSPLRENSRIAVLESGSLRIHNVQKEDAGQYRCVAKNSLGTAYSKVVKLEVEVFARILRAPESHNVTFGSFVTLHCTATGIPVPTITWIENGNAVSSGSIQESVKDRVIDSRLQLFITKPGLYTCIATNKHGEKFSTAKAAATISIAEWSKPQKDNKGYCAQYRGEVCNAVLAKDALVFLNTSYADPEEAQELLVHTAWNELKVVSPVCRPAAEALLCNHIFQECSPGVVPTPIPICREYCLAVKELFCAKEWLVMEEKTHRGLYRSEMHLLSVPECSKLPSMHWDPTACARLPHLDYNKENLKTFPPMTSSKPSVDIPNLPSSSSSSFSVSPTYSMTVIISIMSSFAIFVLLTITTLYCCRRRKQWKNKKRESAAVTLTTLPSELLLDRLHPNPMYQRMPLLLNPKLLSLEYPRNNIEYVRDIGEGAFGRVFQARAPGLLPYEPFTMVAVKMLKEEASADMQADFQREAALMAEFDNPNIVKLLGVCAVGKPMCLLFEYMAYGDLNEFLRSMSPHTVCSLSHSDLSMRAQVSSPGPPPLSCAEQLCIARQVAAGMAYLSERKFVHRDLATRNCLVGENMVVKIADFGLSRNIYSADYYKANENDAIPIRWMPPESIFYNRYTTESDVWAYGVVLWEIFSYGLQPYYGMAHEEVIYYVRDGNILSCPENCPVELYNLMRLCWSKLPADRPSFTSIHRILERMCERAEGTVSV
As to the kind of experiment: Selectivity interaction (KinomeScan (DiscoverX)) EUB0000045b MUSK.

Experiment [5] deals with T3, Tyrosine-protein kinase ITK/TSK (Homo sapiens) (UniProt Q08881).
T3 sequence (whole entry): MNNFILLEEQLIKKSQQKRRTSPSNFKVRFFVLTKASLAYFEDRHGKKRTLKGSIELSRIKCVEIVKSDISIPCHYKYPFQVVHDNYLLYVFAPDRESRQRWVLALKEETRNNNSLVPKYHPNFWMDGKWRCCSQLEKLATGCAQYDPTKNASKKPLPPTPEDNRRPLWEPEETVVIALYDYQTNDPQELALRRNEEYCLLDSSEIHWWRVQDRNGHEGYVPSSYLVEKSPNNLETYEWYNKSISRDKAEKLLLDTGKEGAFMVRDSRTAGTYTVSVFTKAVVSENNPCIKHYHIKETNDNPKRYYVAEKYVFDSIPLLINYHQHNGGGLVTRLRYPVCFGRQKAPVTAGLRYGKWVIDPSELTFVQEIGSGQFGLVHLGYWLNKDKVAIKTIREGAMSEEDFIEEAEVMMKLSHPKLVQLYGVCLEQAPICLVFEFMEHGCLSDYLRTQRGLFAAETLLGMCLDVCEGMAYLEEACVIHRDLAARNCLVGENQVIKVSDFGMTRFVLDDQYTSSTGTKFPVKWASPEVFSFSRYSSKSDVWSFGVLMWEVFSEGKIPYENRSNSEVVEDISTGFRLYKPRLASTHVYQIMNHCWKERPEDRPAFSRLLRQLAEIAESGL
The experiment can be described thus: Selectivity interaction (KinomeScan (DiscoverX)) EUB0000618a ITK. The following applies: at 10 µM.

For experiment [6], the target named is Cyclin-dependent kinase 20 (Homo sapiens) (UniProt Q8IZL9). The experiment can be described thus: Selectivity interaction (Kinase panel (KiNativ target engagement assay in Jurkat cells)) EUB0001635a CDK20. The format is cell-based. The following applies: Selectivity number of off-targets 0.0, Selectivity number of targets 233.0, Source Knowledge https://www.sciencedirect.com/science/article/pii/S2451945619300674?via%3Dihub, at 1 µM.
Chain of Cyclin-dependent kinase 20 (Homo sapiens) (Q8IZL9 whole entry): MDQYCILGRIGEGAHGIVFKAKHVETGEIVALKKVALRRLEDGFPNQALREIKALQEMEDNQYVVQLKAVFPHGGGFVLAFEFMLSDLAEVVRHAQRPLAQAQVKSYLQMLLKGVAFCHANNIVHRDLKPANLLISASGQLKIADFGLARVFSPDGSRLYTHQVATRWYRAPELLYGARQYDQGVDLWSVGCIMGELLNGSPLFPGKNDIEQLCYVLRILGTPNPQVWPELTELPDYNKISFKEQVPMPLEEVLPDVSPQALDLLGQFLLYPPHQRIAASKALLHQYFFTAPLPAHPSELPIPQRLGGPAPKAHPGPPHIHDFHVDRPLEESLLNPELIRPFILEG

On to `Cn1cc(-n2cnc3c(NCc4nc5cc(Cl)c(Cl)cc5[nH]4)nc(N4CCOCC4)nc32)cn1`, for which the % of control in experiment [1] turned out to be 8.76%.
Regarding `CC[C@@H]1[C@H](F)C(=O)N[C@@H]1COc1nccc2cc(C(N)=O)c(OC)cc12` [ZIMLOVISERTIB], the figures for the % of inhibition in experiment [2] and in experiment [3] were -0.3% and 5.5%, respectively.
For `C=CC(=O)Nc1cc(-n2c(=O)ccc3cnc4ccc(-c5ccc(NS(C)(=O)=O)cc5)cc4c32)ccc1C`, the % of control in experiment [4] (at 1 µM) was determined as 100%; in experiment [4] (at 10 µM), 82%.
Regarding `O[C@H]1CC[C@H](Nc2ncc3nc(Nc4c(F)cc(F)cc4F)n([C@H]4CCOC4)c3n2)CC1`, the % of control in experiment [5] turned out to be 100%.
Consider `C=CC(=O)Nc1ccc(C(=O)Nc2[nH]nc3c2CN(C(=O)N[C@H](CN(C)C)c2ccccc2)C3(C)C)cc1`, for which, in experiment [6], the % of engagement is 4.7%.

For the origin of these results see ChEMBL document CHEMBL5465560, “Selectivity Literature for EUbOPEN Chemogenomic Library” (2024).
